{"source": "patent US4623657A", "about": "“Spiro [benzofuran-2(3H),1'-cycloheptane]s and their therapeutic use” (Hoechst-Roussel Pharmaceuticals Inc., priority 1985, dated 1986)", "key": {"[1]": {"assay": "Antihypertensive activity, spontaneous hypertensive rat, indirect tail cuff method", "assay_type": "in vivo", "conditions": "three days, measured on third day", "method": "The spiro[benzofuran-2(3H),1'-cycloheptane]s of formula I of the present invention are useful as antihypertensive agents due to their ability to depress blood pressure in mammals. Antihypertensive activity is measured in the spontaneous hypertensive rat by the indirect tail cuff method described in \"Methods in Pharmacology\", A. Schwartz, Ed., Vol. I, Appleton-Century Crofts, New York, N. Y., 1971, p. 135. In this procedure a group of five animals are treated orally for three days with the test compound in relation to a control group of the same number. The drop in blood pressure is measured on the third day following administration. The antihypertensive activities of some of the compounds, expressed as a decrease in mean arterial blood pressure (in mm Hg), are given in Table I."}, "[2]": {"assay": "Anticonvulsant activity, supramaximal electroshock assay (SES)", "assay_type": "in vivo, mice", "conditions": "Mus musculus, ip", "method": "Compounds I of the present invention are useful as anticonvulsant agents. […] Groups of male mice (18-30 grams) are used. Drugs are prepared using distilled water and if insoluble, a surfactant is added. Control animals receive vehicle. Drugs are routinely administered intraperitoneally. The dosage volume is 10 ml/kg.\nThe animal's eyes are placed across the output terminals of an A.C. shocker that delivers 206 volts rms for 300 milliseconds. Electrode paste coats the animal's eyes at the point of contact with the terminals.\nProtection is expressed as normalized percent inhibition relative to vehicle control. [formula]\nA time response is carried out using 6 animals per group. Animals are tested at 30, 60 and 120 minutes postdrug. Additional time periods are tested if indicated by previous tests.\nWhen the peak activity time has been determined, a dose response is initiated, using 10 animals per group at that time period. The ED50 and 95% confidence interval are calculated by computerized probit analysis."}, "[3]": {"assay": "Analgesic activity, 2-phenyl-1,4-benzoquinone-induced writhing test", "assay_type": "in vivo, mice", "description": "Compounds I of the present invention are useful as analgesic agents due to their ability to alleviate pain in mammals. […] Exptl. Biol. Med., 95, 729 (1957)]."}, "[4]": {"assay": "Inhibition of tetrabenazine-induced ptosis (antidepressant activity)", "assay_type": "in vivo, mice", "conditions": "Mus musculus, ip, 0.5 h; i.p.; tetrabenazine 40 mg/kg i.p. 30 minutes after", "method": "Compounds I of the present invention are useful as antidepressant agents due to their ability to prevent tetrabenazine induced ptosis in mice. The method used is as follows.\nMale mice weighing 20 to 30 grams are used in test groups of five subjects. All compounds are dissolved, or suspended with one drop of a non-ionic surfactant in distilled water and administered in volumes of 10 ml/kg of body weight. Tetrabenazine (TBZ) solution is made from methanesulfonate salt and the concentration is adjusted to enable the administration of 40 mg/kg of base by intraperitoneal injection (i.p.).\nIf the test compound is administered intraperitoneally, TBZ is injected 30 minutes after administration. If the test compound is administered orally (p.o.), TBZ is injected 60 minutes after the administration. A control group received solvent and TBZ by the same route and at the same intervals as the drug groups.\nThirty and sixty minutes after TBZ injection the subjects are placed in individual plastic containers (10/1/2\"×8\"×6\") and one minute after transfer they are scored for ptosis on the followig scale: eyes closed=4, eyes 3/4 closed=3, eyes 1/2 closed=2, eyes 1/4 closed=1, and eyes open=0. The total score for each group of five will therefore be from 0 to 20 and these scores are used as indications of drug activity.\nThe vehicle-control group score is used as a determinate of the validity of each test. […]"}}, "note": "Structures can show the parent of a compound that is named as a salt."}
{"smiles": "CN(C)CCC=C1c2ccccc2OC12CCCCCC2", "values": [{"measurement": "Blood Pressure Drop", "setting": "[1]; 50 mg/kg p.o.", "result": 32, "unit": "mm Hg"}]}
{"smiles": "CN(C)CCCC1c2ccccc2OC12CCCCCC2", "note": "(stereo not shown) [3-(3-Dimethylaminopropyl)-spiro[benzofuran-2(3H),1'-cycloheptane]hydrochloride]", "values": [{"measurement": "ED50", "setting": "[2]", "result": 30.6, "unit": "mg/kg"}]}
{"smiles": "CN(C)CCCC1c2cc(Cl)ccc2OC12CCCCCC2.Cl", "note": "(stereo not shown) [5-Chloro-3-(3-dimethylaminopropyl)-spiro[benzofuran-2(3H),1'-cycloheptane] hydrochloride]", "values": [{"measurement": "% Inhibition at 20 mg/kg, s.c.", "setting": "[3]", "result": 40, "unit": "%"}]}
{"smiles": "CN(C)CCO/N=C1/c2ccccc2OC12CCCCCC2", "note": "[(Z)-O-Dimethylaminoethyl-spiro[benzofuran-2(3H),1'-cycloheptan]-3-one oxime maleate]", "values": [{"measurement": "ED50", "setting": "[2]", "result": 30.2, "unit": "mg/kg"}, {"measurement": "ED50", "setting": "[4]", "result": 72.5, "unit": "mg/kg"}]}
{"smiles": "CC(C)NCC(O)CO/N=C1/c2ccccc2OC12CCCCCC2", "note": "(stereo not shown) [(Z)-O-[3-[(1-Methylethyl)amino]-2-hydroxypropyl]spiro[benzofuran-2(3H),1'-cycloheptan]-3-one oxime maleate]", "values": [{"measurement": "% Inhibition at 20 mg/kg, s.c.", "setting": "[3]", "result": 40, "unit": "%"}]}
{"smiles": "CNC1=Nc2ccc(Cl)cc2C(c2ccccc2)=[N+]([O-])C1", "note": "[Chlordiazepoxide, reference compound]", "values": [{"measurement": "ED50", "setting": "[2]", "result": 8, "unit": "mg/kg"}]}
{"smiles": "CN(CCCC1c2ccccc2OC12CCCCCC2)CCc1ccccc1.O=C(O)/C=C/C(=O)O", "note": "(stereo not shown) [N-Methyl-N-(2-phenylethyl)-spiro[benzofuran-2(3H),1'-cycloheptane]-3-propanamine fumarate]", "values": [{"measurement": "Blood Pressure Drop", "setting": "[1]; 50 mg/kg p.o.", "result": 76, "unit": "mm Hg"}]}
{"smiles": "CN(CCCC1c2ccccc2OC12CCCCCC2)Cc1ccccc1", "note": "(stereo not shown) [N-Methyl-N-[3-[spiro[benzofuran-2(3H),1'-cyclohept-3-yl]]propyl]benzenemethanamine maleate]", "values": [{"measurement": "% Inhibition at 20 mg/kg, s.c.", "setting": "[3]", "result": 54, "unit": "%"}]}
{"smiles": "CN(CCCC(c1ccc(F)cc1)c1ccc(F)cc1)CCCC1c2ccccc2OC12CCCCCC2", "note": "(stereo not shown) [N-[4-[Bis(4-fluorophenyl)]-butyl]-N-methyl-spiro[benzofuran-2(3H),1'-cycloheptane]-3-propanamine fumarate]", "values": [{"measurement": "Blood Pressure Drop", "setting": "[1]; 30 mg/kg p.o.", "result": 61, "unit": "mm Hg"}, {"measurement": "% Inhibition at 20 mg/kg, s.c.", "setting": "[3]", "result": 70, "unit": "%"}]}
{"smiles": "CCC(=O)O[C@](Cc1ccccc1)(c1ccccc1)[C@H](C)CN(C)C", "note": "[Propoxyphene, reference compound]", "values": [{"measurement": "ED50", "setting": "[3]; Mus musculus, sc", "result": 3.9, "unit": "mg/kg"}]}
{"smiles": "C[C@](N)(Cc1ccc(O)c(O)c1)C(=O)O", "note": "[alpha-Methyldopa, reference compound]", "values": [{"measurement": "Blood Pressure Drop", "setting": "[1]; 50 mg/kg p.o.", "result": 40, "unit": "mm Hg"}]}
